Test results: patent US20100311714A1, “1H-IMIDAZO[4,5-c]QUINOLINONE COMPOUNDS” (priority 2009, published 2010)
In brackets after ≈: the same amount, converted by molar mass. Where two headings read alike, the source gives them in different places.

Key:
[1] = High-throughput equilibrium solubility at pH 6.8; assay type: physicochemical; settings: pH 6.8, aqueous buffer, thermodynamic from solid; read-out: HT-Eq Sol/pH 6.8
How it was run: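 Solubility was measured at pH 6.8 following the cited Zhou et al. (2007) procedure.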

PI3K alfa = molecular target: T1, PI3K alfa (Homo sapiens, UniProt P42336); assay: PI3K alpha kinase assay (Kinase-Glo luminescence); assay type: biochemical
T1 construct: His tag (C); made in house; host or cells: baculovirus BV1075; Tn5 (Trichoplusia ni) or TiniPro insect cells
T1 sequence (P42336 with tags, fused parts or gaps limits assumed): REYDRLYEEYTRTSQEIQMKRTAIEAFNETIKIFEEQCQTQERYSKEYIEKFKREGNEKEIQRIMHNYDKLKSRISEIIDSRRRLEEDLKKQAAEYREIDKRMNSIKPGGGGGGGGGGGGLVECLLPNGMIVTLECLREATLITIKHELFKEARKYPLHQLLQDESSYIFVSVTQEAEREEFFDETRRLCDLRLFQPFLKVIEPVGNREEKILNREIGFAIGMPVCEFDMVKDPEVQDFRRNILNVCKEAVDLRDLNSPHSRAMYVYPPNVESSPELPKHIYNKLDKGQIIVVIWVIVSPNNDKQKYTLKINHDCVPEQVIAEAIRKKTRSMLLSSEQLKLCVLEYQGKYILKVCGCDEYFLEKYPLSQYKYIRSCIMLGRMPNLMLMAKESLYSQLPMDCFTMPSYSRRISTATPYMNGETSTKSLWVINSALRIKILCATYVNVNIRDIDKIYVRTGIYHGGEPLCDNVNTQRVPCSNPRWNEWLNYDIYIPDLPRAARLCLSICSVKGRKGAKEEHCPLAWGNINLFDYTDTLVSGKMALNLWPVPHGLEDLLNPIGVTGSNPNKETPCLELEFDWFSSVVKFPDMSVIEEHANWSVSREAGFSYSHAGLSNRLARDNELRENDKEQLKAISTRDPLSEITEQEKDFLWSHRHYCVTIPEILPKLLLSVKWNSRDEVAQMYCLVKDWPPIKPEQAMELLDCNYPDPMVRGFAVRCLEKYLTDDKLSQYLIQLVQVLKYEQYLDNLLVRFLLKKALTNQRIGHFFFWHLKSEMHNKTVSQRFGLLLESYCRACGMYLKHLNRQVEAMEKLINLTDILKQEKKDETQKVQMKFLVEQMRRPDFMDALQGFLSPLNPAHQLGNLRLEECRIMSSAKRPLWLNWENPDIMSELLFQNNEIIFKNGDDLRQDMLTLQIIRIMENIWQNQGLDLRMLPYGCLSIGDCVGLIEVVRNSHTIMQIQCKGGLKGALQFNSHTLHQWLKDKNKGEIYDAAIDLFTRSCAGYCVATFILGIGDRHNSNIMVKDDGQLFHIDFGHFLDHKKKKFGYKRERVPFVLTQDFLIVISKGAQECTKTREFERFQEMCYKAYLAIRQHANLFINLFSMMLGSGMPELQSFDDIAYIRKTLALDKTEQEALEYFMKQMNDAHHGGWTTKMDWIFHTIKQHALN
How it was run: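 Kinase-Glo luminescence read of ATP remaining after PI3Kα (10 nM) phosphorylates 10 μg/mL bovine liver phosphatidylinositol with 1 μM ATP, pH 7.5 TRIS, 3 mM MgCl2, 0.05% CHAPS; 60 min at room temperature. IC50 from 4-parameter logistic fit over 8 concentrations.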

PI3K beta = molecular target: T2, PI3K beta (Homo sapiens, UniProt P42338); assay: PI3K beta kinase assay (Kinase-Glo luminescence); assay type: biochemical
T2 construct: for the full-length p110-b subunit are generated and fused by overlapping PCR; His tag (C); made in house; host or cells: baculovirus BV949; Tn5 (Trichoplusia ni) or TiniPro insect cells
T2 sequence (P42338 with tags, fused parts or gaps limits assumed): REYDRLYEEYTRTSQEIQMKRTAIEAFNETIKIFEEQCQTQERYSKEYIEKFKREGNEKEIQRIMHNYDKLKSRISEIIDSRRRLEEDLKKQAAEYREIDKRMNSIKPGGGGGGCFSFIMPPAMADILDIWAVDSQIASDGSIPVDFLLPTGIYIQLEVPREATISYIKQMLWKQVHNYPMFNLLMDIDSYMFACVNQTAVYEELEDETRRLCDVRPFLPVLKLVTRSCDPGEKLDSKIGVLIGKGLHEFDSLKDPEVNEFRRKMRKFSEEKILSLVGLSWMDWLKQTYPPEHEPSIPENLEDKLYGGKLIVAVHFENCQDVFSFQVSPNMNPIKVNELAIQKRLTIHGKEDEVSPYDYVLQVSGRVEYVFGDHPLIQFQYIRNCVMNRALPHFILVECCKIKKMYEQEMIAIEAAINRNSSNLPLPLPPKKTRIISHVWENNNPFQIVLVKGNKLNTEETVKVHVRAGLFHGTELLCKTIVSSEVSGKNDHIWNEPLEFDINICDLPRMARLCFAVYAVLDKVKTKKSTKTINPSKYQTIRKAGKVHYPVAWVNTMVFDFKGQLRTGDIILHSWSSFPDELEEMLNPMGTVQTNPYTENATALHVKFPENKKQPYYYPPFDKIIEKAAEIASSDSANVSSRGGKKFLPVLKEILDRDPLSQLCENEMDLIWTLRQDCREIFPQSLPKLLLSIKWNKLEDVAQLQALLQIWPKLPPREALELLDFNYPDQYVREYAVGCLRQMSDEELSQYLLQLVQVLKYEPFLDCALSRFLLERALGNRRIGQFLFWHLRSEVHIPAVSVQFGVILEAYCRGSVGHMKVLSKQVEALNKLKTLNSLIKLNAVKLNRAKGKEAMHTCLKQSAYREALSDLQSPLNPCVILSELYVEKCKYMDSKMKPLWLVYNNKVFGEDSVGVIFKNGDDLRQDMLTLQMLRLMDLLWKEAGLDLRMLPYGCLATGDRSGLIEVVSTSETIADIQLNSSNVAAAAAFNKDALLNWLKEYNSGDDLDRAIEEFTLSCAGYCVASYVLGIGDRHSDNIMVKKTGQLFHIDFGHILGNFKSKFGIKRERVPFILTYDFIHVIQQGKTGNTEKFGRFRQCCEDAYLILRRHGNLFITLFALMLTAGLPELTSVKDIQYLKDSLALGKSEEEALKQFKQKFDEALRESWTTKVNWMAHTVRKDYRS
How it was run: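 PI3Kβ construct BV949 (p85 iSH2–p110β full-length, C-His), 25 nM, reacted with 1 μM ATP and 10 μg/mL phosphatidylinositol in Tris pH 7.5, MgCl2, NaCl, CHAPS, DTT buffer, 60 min at room temperature. Remaining ATP by Kinase-Glo luminescence; IC50 from 4-parameter logistic fit of 8 concentrations.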

| Compound | solubility thermodynamic [1] | IC50 (PI3K alfa; read-out: EPK_PI3Kalfa/IC50) | IC50 (PI3K beta; read-out: EPK_PI3Kbeta/IC50) | IC50 (PI3K alfa; read-out: PI3Kalfa/IC50) | IC50 (PI3K beta; read-out: PI3Kbeta/IC50) |
| --- | --- | --- | --- | --- | --- |
| Cc1ncccc1-n1c(=O)n(C)c2cnc3ccc(-c4cncc(NC(C)C)c4)cc3c21 [Example 2.24, 8-(5-Isopropylamino-pyridin-3-yl)-3-methyl-1-(2-methyl-pyridin-3-yl)-1,3-dihydro-imidazo[4,5-c]quinolin-2-one] | 196 µg/mL (≈ 462 µM) | 28 nM | 40 nM | – | – |
| CNc1cncc(-c2ccc3ncc4c(c3c2)n(-c2cccnc2C)c(=O)n4C)c1 [Example 2.26, 3-Methyl-8-(5-methylamino-pyridin-3-yl)-1-(2-methyl-pyridin-3-yl)-1,3-dihydro-imidazo[4,5-c]quinolin-2-one] | 115 µg/mL (≈ 290 µM) | 14 nM | 31 nM | – | – |
| COCc1ncc(-c2ccc3ncc4c(c3c2)n(-c2ccc(N3CCC3)nc2C)c(=O)n4C)cc1OC(C)C [Example 23.2, 1-(6-Azetidin-1-yl-2-methyl-pyridin-3-yl)-8-(5-isopropoxy-6-methoxymethyl-pyridin-3-yl)-3-methyl-1,3-dihydro-imidazo[4,5-c]quinolin-2-one] | 264 µg/mL (≈ 503 µM) | 33 nM | 193 nM | – | – |
| COc1ncc(-c2ccc3ncc4c(c3c2)n(-c2ccc(N3CC[C@H](O)C3)nc2C)c(=O)n4C)c(OC)n1 [Example 32.3, 8-(2,4-Dimethoxy-pyrimidin-5-yl)-1-[6-((S)-3-hydroxy-pyrrolidin-1-yl)-2-methyl-pyridin-3-yl]-3-methyl-1,3-dihydro-imidazo[4,5-c]quinolin-2-one] | 30 µg/mL (≈ 58.4 µM) | 32 nM | 192 nM | – | – |
| CNc1ncc(-c2ccc3ncc4c(c3c2)n(-c2ccc(N(C)CCO)nc2C)c(=O)n4C)cn1 [Example 26.2, 1-{6-[(2-Hydroxy-ethyl)-methyl-amino]-2-methyl-pyridin-3-yl}-3-methyl-8-(2-methylamino-pyrimidin-5-yl)-1,3-dihydro-imidazo[4,5-c]quinolin-2-one] | 23 µg/mL (≈ 48.9 µM) | 63 nM | 99 nM | – | – |
| CCOc1ccc(-c2ccc3ncc4c(c3c2)n(-c2ccc(F)nc2C)c(=O)n4C)cn1 [Example 7.3, 8-(6-Ethoxy-pyridin-3-yl)-1-(6-fluoro-2-methyl-pyridin-3-yl)-3-methyl-1,3-dihydro-imidazo[4,5-c]quinolin-2-one] | 2 µg/mL (≈ 4.66 µM) | – | – | 67 nM | 452 nM |
| COc1cc(-c2ccc3ncc4c(c3c2)n(-c2cccnc2C)c(=O)n4C)cnc1C(OC)OC [Example 2.27, 8-(6-Dimethoxymethyl-5-methoxy-pyridin-3-yl)-3-methyl-1-(2-methyl-pyridin-3-yl)-1,3-dihydro-imidazo[4,5-c]quinolin-2-one] | > 472 µg/mL | 80 nM | 1240 nM | – | – |
| Cc1nc(C(F)(F)F)ccc1-n1c(=O)n(C)c2cnc3ccc(-c4cncc(C(C)(C)O)c4)cc3c21 [Example 33.1, 8-[5-(1-Hydroxy-1-methyl-ethyl)-pyridin-3-yl]-3-methyl-1-(2-methyl-6-trifluoromethyl-pyridin-3-yl)-1,3-dihydro-imidazo[4,5-c]quinolin-2-one] | 423 µg/mL (≈ 857 µM) | 13 nM | 69 nM | – | – |
| Cc1ncccc1-n1c(=O)n(C)c2cnc3ccc(-c4ccc(CO)nc4)cc3c21 [Example 2.6, 8-(6-Hydroxymethyl-pyridin-3-yl)-3-methyl-1-(2-methyl-pyridin-3-yl)-1,3-dihydro-imidazo[4,5-c]quinolin-2-one] | 125 µg/mL (≈ 315 µM) | – | – | 100 nM | 706 nM |
| Cc1nc(N(C)CCO)ccc1-n1c(=O)n(C)c2cnc3ccc(-c4cnc(N)c(C(F)(F)F)c4)cc3c21 [Example 26.1, 8-(6-Amino-5-trifluoromethyl-pyridin-3-yl)-1-{6-[(2-hydroxy-ethyl)-methyl-amino]-2-methyl-pyridin-3-yl}-3-methyl-1,3-dihydro-imidazo[4,5-c]quinolin-2-one] | 4 µg/mL (≈ 7.64 µM) | 12 nM | < 3 nM | – | – |

Other lines, results leading:

| solubility thermodynamic [1] | IC50 (PI3K alfa; read-out: EPK_PI3Kalfa/IC50) | IC50 (PI3K beta; read-out: EPK_PI3Kbeta/IC50) | IC50 (PI3K alfa; read-out: PI3Kalfa/IC50) | IC50 (PI3K beta; read-out: PI3Kbeta/IC50) | Compound |
| --- | --- | --- | --- | --- | --- |
| 35 µg/mL (≈ 72.8 µM) | 33 nM | 171 nM | – | – | Cc1nc(N2CCC2)ccc1-n1c(=O)n(C)c2cnc3ccc(-c4cncc(OC(C)C)c4)cc3c21 [Example 23.9, 1-(6-Azetidin-1-yl-2-methyl-pyridin-3-yl)-8-(5-isopropoxy-pyridin-3-yl)-3-methyl-1,3-dihydro-imidazo[4,5-c]quinolin-2-one] |
| 22 µg/mL (≈ 46.1 µM) | 14 nM | 1160 nM | – | – | Cc1nc(N2CCC2)ccc1-n1c(=O)n(C)c2cnc3ccc(-c4cncc(N5CCC5)c4)cc3c21 [Example 23.1, 1-(6-Azetidin-1-yl-2-methyl-pyridin-3-yl)-8-(5-azetidin-1-yl-pyridin-3-yl)-3-methyl-1,3-dihydro-imidazo[4,5-c]quinolin-2-one] |
| 15 µg/mL (≈ 36.6 µM) | – | – | 20 nM | 577 nM | Cc1ncccc1-n1c(=O)n(C)c2cnc3ccc(-c4ccc(C(N)=O)cc4)cc3c21 [Example 2.3, 4-[3-Methyl-1-(2-methyl-pyridin-3-yl)-2-oxo-2,3-dihydro-1H-imidazo[4,5-c]quinolin-8-yl]-benzamide] |
| 51 µg/mL (≈ 112 µM) | 267 nM | 563 nM | – | – | CCOc1cc(-c2ccc3ncc4c(c3c2)n(-c2cccnc2C)c(=O)n4C)cnc1COC [Example 2.28, 8-(5-Ethoxy-6-methoxymethyl-pyridin-3-yl)-3-methyl-1-(2-methyl-pyridin-3-yl)-1,3-dihydro-imidazo[4,5-c]quinolin-2-one] |
| 14 µg/mL (≈ 29.8 µM) | 75 nM | 625 nM | – | – | CCNc1ncc(-c2ccc3ncc4c(c3c2)n(-c2ccc(C(C)(C)O)nc2C)c(=O)n4C)cn1 [Example 31.7, 8-(2-Ethylamino-pyrimidin-5-yl)-1-[6-(1-hydroxy-1-methyl-ethyl)-2-methyl-pyridin-3-yl]-3-methyl-1,3-dihydro-imidazo[4,5-c]quinolin-2-one] |
| 57 µg/mL (≈ 111 µM) | 9 nM | 677 nM | – | – | CCNc1cc(-c2ccc3ncc4c(c3c2)n(-c2ccc(N3CC(O)C3)nc2C)c(=O)n4C)cnc1CO [Example 29.2, 8-(5-Ethylamino-6-hydroxymethyl-pyridin-3-yl)-1-[6-(3-hydroxy-azetidin-1-yl)-2-methyl-pyridin-3-yl]-3-methyl-1,3-dihydro-imidazo[4,5-c]quinolin-2-one] |
| 67 µg/mL (≈ 139 µM) | 32 nM | 124 nM | – | – | CNc1ncc(-c2ccc3ncc4c(c3c2)n(-c2ccc(N3CCC(O)C3)nc2C)c(=O)n4C)cn1 (stereo not drawn) [Example 27.2, 1-[6-(3-Hydroxy-pyrrolidin-1-yl)-2-methyl-pyridin-3-yl]-3-methyl-8-(2-methylamino-pyrimidin-5-yl)-1,3-dihydro-imidazo[4,5-c]quinolin-2-one] |
| 3 µg/mL (≈ 6.35 µM) | 23 nM | 217 nM | – | – | CNc1ncc(-c2ccc3ncc4c(c3c2)n(-c2ccc(C(C)(C)O)nc2C)c(=O)n4C)cc1F [Example 31.1, 8-(5-Fluoro-6-methylamino-pyridin-3-yl)-1-[6-(1-hydroxy-1-methyl-ethyl)-2-methyl-pyridin-3-yl]-3-methyl-1,3-dihydro-imidazo[4,5-c]quinolin-2-one] |
| 187 µg/mL (≈ 356 µM) | 67 nM | 291 nM | – | – | CCOc1cc(-c2ccc3ncc4c(c3c2)n(-c2ccc(N3CCCC3)nc2C)c(=O)n4C)cnc1COC [Example 25.2, 8-(5-Ethoxy-6-methoxymethyl-pyridin-3-yl)-3-methyl-1-(2-methyl-6-pyrrolidin-1-yl-pyridin-3-yl)-1,3-dihydro-imidazo[4,5-c]quinolin-2-one] |
